Values quoted from earlier work in patent US20100240626A1, “ANTIEMETIC-ORAL CONTRACEPTIVE COMBINATION” (Lupin Limited, priority 2007, published 2010).

Settings: 0.75 mg of levonorgestrel administered

**Q.** What does the source list for `C#C[C@]1(O)CC[C@H]2[C@@H]3CCC4=CC(=O)CC[C@@H]4[C@H]3CC[C@@]21CC` [levonorgestrel]?
**A.** patients experiencing nausea: about 23.1%; patients experiencing vomiting: 5.6%
